20 compounds from patent US9656988B2 (Pharmacyclics LLC, priority 2013, dated 2017) can be followed below.

pIC50: −log10 of the molar value. Like-named read-outs stand apart in the source and are kept apart here.

In the experiment the target is BTK (Homo sapiens (Human), UniProt Q06187). Put plainly: Btk in vitro inhibitory activity (one of Method A TR-FRET, Method B electrophoretic mobility shift, Method C radiometric filter binding). The experiment is classed as biochemical. A general note: Mobility shift assays separate free from complexed probe on a gel.
BTK, sequence (Q06187 whole entry): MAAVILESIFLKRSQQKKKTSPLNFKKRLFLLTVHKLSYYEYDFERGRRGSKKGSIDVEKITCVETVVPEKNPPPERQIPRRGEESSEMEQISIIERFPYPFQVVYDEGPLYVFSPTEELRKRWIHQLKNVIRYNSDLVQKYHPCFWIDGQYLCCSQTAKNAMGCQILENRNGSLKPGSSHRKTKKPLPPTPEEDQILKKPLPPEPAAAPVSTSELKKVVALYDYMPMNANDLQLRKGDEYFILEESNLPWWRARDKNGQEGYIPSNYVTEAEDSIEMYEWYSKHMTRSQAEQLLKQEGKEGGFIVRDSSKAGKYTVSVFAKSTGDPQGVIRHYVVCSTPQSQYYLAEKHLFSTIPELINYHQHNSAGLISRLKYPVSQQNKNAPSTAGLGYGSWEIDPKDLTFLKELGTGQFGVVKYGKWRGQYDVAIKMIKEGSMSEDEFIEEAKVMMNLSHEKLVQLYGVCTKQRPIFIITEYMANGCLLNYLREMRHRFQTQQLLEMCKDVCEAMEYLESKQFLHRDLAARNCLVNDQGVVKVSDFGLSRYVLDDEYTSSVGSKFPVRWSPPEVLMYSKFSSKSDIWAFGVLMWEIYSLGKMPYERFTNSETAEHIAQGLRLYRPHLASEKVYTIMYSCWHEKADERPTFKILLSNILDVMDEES
Where [1] appears, read: determined using one of the methods of Example 355a, 355b and 355c, read-out: BTK IC50.

For orientation: pIC50 means the negative decadic logarithm of the IC50, by convention in mol/L. As for `COc1ccc(C(=O)N[C@@H]2CCCN(c3cnc(C(N)=O)c(Nc4ccc(C5CCN(C(C)C)CC5)cc4)n3)C2)cc1` [Example 134, (R)-3-(4-(1-isopropylpiperidin-4-yl)phenylamino)-5-(3-(4-methoxybenzamido)piperidin-1-yl)pyrazine-2-carboxamide], the negative logarithm of the IC50 (pIC50) reads like this: under setting [1], > 8.00; (read-out: Btk (IC50)) > 8.00. As for `CN(C)C(=O)N(C)[C@@H]1CCCN(c2cnc(C(N)=O)c(Nc3ccc(C4CCN(C5CCCC5)CC4)cc3)n2)C1` [Example 225, (R)-3-(4-(1-cyclopentylpiperidin-4-yl)phenylamino)-5-(3-(1,3,3-trimethylureido)piperidin-1-yl)pyrazine-2-carboxamide], the pIC50 is, setting by setting: (Btk (IC50)) 7.00 to 8.00; under setting [1], > 8.00.

With `NC(=O)c1nnc(N2CCC[C@@H](N3Cc4ccccc4C3=O)C2)nc1Nc1ccc(C(=O)N2CCOCC2)cc1` [Example 104, (R)-5-(4-(morpholine-4-carbonyl)phenylamino)-3-(3-(1-oxoisoindolin-2-yl)piperidin-1-yl)-1,2,4-triazine-6-carboxamide], under setting [1], the pIC50 is 7.00 to 8.00. Take `NC(=O)c1ncc(N2CCC[C@@H]3[C@H]2CCN3C(=O)C2CC2)nc1Nc1ccc(C2CCN(C3CCCC3)CC2)cc1` (racemic) [Example 288, 3-(4-(1-cyclopentylpiperidin-4-yl)phenylamino)-5-((3aR,7aR)-1-(cyclopropanecarbonyl)dihydro-1H-pyrrolo[3,2-b]pyridin-4(2H,5H,6H,7H,7aH)-yl)pyrazine-2-carboxamide]: the pIC50 runs as follows: under setting [1], 7.00 to 8.00; (read-out: Btk (IC50)) 7.00 to 8.00. In the case of `CN(C)C(=O)N[C@@H]1CCCN(c2cnc(C(N)=O)c(Nc3ccc(C4CCNCC4)cc3Cl)n2)C1` [Example 213, (R)-3-(2-chloro-4-(piperidin-4-yl)phenylamino)-5-(3-(3,3-dimethylureido)piperidin-1-yl)pyrazine-2-carboxamide], the negative logarithm of the IC50 (pIC50) by setting is: (Btk (IC50)) 7.00 to 8.00; under setting [1], 7.00 to 8.00.

As to `NC(=O)c1nnc(N2CCC[C@@H](NC(=O)c3ncccn3)C2)nc1Nc1ccc(C(=O)N2CCOCC2)cc1` [Example 15, (R)-5-(4-(morpholine-4-carbonyl)phenylamino)-3-(3-(pyrimidine-2-carboxamido)piperidin-1-yl)-1,2,4-triazine-6-carboxamide], the pIC50 under setting [1] was 7.00 to 8.00. In the case of `COc1ccc(C(=O)N[C@@H]2CCCN(c3cnc(C(N)=O)c(Nc4ccc(C5CCN(S(C)(=O)=O)CC5)cc4)n3)C2)cc1` [Example 143, (R)-5-(3-(4-methoxybenzamido)piperidin-1-yl)-3-(4-(1-(methylsulfonyl)piperidin-4-yl)phenylamino)pyrazine-2-carboxamide], the pIC50 runs as follows: (Btk (IC50)) 7.00 to 8.00; under setting [1], 7.00 to 8.00.

Regarding `CN(C)C(=O)N1CCC[C@@H]2[C@H]1CCCN2c1cnc(C(N)=O)c(Nc2ccc(C3CCN(C4CCCC4)CC3)cc2)n1` [Example 289, (4aR,8aR)-5-(5-carbamoyl-6-(4-(1-cyclopentylpiperidin-4-yl)phenylamino)pyrazin-2-yl)-N,N-dimethyloctahydro-1,5-naphthyridine-1(2H)-carboxamide], the pIC50 under setting [1] was 7.00 to 8.00. As to `CCC(=O)N[C@@H]1CCCN(c2nnc(C(N)=O)c(Nc3ccc(C4CCN(C5CCCC5)CC4)cc3)n2)C1` [Example 330, (R)-5-(4-(1-cyclopentylpiperidin-4-yl)phenylamino)-3-(3-propionamidopiperidin-1-yl)-1,2,4-triazine-6-carboxamide], the negative-log IC50 (pIC50) is, setting by setting: under setting [1], > 8.00; (read-out: Btk (IC50)) > 8.00. For the compound `COc1ccc(C(=O)N[C@@H]2CCCN(c3cnc(C(N)=O)c(Nc4ccc(OCCN(C)C)cc4)n3)C2)cc1` [Example 115, (R)-3-(4-(2-(dimethylamino)ethoxy)phenylamino)-5-(3-(4-methoxybenzamido)piperidin-1-yl)pyrazine-2-carboxamide], under setting [1], the pIC50 is > 8.00. Regarding `Cc1ncc(C(=O)N[C@@H]2CCCN(c3nnc(C(N)=O)c(Nc4ccc(C(=O)N5CCOCC5)cc4)n3)C2)s1` [Example 93, (R)—N-(1-(6-carbamoyl-5-(4-(morpholine-4-carbonyl)phenylamino)-1,2,4-triazin-3-yl)piperidin-3-yl)-2-methylthiazole-5-carboxamide], for the setting “read-out: Btk (IC50)”, the negative-log IC50 (pIC50) was > 8.00. On to `CC#CC(=O)N[C@@H]1CCCN(c2nnc(C(N)=O)c(Nc3ccc(C(=O)N4CCOCC4)cc3)n2)C1` [Example 23, (R)-3-(3-but-2-ynamidopiperidin-1-yl)-5-(4-(morpholine-4-carbonyl)phenylamino)-1,2,4-triazine-6-carboxamide], for which the pIC50 under setting [1] was 7.00 to 8.00.

Take `CC(C)C1CCN(C(=O)N[C@@H]2CCCN(c3nnc(C(N)=O)c(Nc4ccc(C(=O)N5CCOCC5)cc4)n3)C2)CC1` [Example 82, (R)-3-(3-(4-isopropylpiperidine-1-carboxamido)piperidin-1-yl)-5-(4-(morpholine-4-carbonyl)phenylamino)-1,2,4-triazine-6-carboxamide]: the pIC50 was 7.00 to 8.00 (Btk (IC50)) and 7.00 to 8.00 under setting [1]. For the compound `CN1CCN([C@@H]2CCCN(c3cnc(C(N)=O)c(Nc4ccccc4)n3)C2)C1=O` [Example 261, (R)-5-(3-(3-methyl-2-oxoimidazolidin-1-yl)piperidin-1-yl)-3-(phenylamino)pyrazine-2-carboxamide], the negative logarithm of the IC50 (pIC50) was 7.00 to 8.00. Further, under setting [1], the pIC50 was 7.00 to 8.00.

For `COCCOc1ccc(Nc2nc(N3CCC[C@@H](NC(=O)N[C@H](C)c4ccccc4)C3)cnc2C(N)=O)cc1` [Example 347, 3-(4-(2-methoxyethoxy)phenylamino)-5-((R)-3-(3-((R)-1-phenylethyl)ureido)piperidin-1-yl)pyrazine-2-carboxamide], the pIC50 under setting [1] was 7.00 to 8.00. Regarding `CN1CCN([C@@H]2CCCN(c3cnc(C(N)=O)c(Nc4ccc(C5(C)CCN(C=O)CC5)cc4)n3)C2)C1=O` [Example 268, (R)-3-(4-(1-formyl-4-methylpiperidin-4-yl)phenylamino)-5-(3-(3-methyl-2-oxoimidazolidin-1-yl)piperidin-1-yl)pyrazine-2-carboxamide], the pIC50 by setting is: under setting [1], > 8.00; (read-out: Btk (IC50)) > 8.00. Consider `C[C@@H]1[C@H](NC(=O)N(C)C)CCCN1c1cnc(C(N)=O)c(Nc2ccc(C3(C(F)(F)F)CC3)cc2)n1` [Example 239, 5-((2R,3R)-3-(3,3-dimethylureido)-2-methylpiperidin-1-yl)-3-(4-(1-(trifluoromethyl)cyclopropyl)phenylamino)pyrazine-2-carboxamide], for which the negative-log IC50 (pIC50) is > 8.00 under setting [1] and > 8.00 (read-out: Btk (IC50)). As to `CCN(CC)C(=O)N[C@@H]1CCCN(c2nnc(C(N)=O)c(Nc3ccc(C(=O)N4CCOCC4)cc3)n2)C1` [Example 99, (R)-3-(3-(3,3-diethylureido)piperidin-1-yl)-5-(4-(morpholine-4-carbonyl)phenylamino)-1,2,4-triazine-6-carboxamide], under “read-out: Btk (IC50)”, the pIC50 is > 8.00. In the case of `COc1ccc(C(=O)N[C@@H]2CCCN(c3cnc(C(N)=O)c(Nc4ccc5ncccc5c4)n3)C2)cc1` [Example 120, (R)-5-(3-(4-methoxybenzamido)piperidin-1-yl)-3-(quinolin-6-ylamino)pyrazine-2-carboxamide], the pIC50 is, setting by setting: under setting [1], 7.00 to 8.00; (read-out: Btk (IC50)) 7.00 to 8.00.

As for `COc1ccc(C(=O)N[C@@H]2CCCN(c3cnc(C(N)=O)c(Nc4ccc(C5CCN(CC(F)(F)F)CC5)cc4)n3)C2)cc1` [Example 137, (R)-5-(3-(4-methoxybenzamido)piperidin-1-yl)-3-(4-(1-(2,2,2-trifluoroethyl)piperidin-4-yl)phenylamino)pyrazine-2-carboxamide], the negative logarithm of the IC50 (pIC50) runs as follows: (Btk (IC50)) 7.00 to 8.00; under setting [1], 7.00 to 8.00.
